Measured values taken from patent US11542240B2, “STK19 inhibitors for treatment of cancer” (TRUSTEES OF BOSTON UNIVERSITY, priority 2018, dated 2023).

Assays:
Test in all cases: biochemical
Type in all cases: binding
[1] = molecular target: panel of 468 diverse kinases (Homo sapiens, UniProt O15530); details: PDPK1; 1000 nM; read-out: Percent Control
[2] = molecular target: panel of 468 diverse kinases (Homo sapiens, UniProt O75747); details: PIK3C2G; 1000 nM; read-out: Percent Control
[3] = molecular target: panel of 468 diverse kinases (Homo sapiens, UniProt P11309); details: PIM1; 1000 nM; read-out: Percent Control
[4] = molecular target: panel of 468 diverse kinases (Homo sapiens, UniProt P28482); details: ERK2; 1000 nM; read-out: Percent Control
Sequence of panel of 468 diverse kinases (Homo sapiens, UniProt P28482) (P28482 2-360 limits assumed): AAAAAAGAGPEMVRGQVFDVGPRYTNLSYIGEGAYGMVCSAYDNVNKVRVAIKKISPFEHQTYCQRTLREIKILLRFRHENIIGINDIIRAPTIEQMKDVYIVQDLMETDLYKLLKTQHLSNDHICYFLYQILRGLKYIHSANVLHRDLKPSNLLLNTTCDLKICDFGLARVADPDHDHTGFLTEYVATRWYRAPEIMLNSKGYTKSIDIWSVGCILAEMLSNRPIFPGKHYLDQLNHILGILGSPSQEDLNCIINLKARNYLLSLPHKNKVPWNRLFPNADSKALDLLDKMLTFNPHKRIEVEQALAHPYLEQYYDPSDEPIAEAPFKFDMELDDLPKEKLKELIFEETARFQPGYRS

[5] = molecular target: panel of 468 diverse kinases (Homo sapiens, UniProt P31751); details: AKT2; 1000 nM; read-out: Percent Control
[6] = molecular target: panel of 468 diverse kinases (Homo sapiens, UniProt P42336, M1043I); details: PIK3CA(M1043I); 1000 nM; read-out: Percent Control
[7] = molecular target: panel of 468 diverse kinases (Homo sapiens, UniProt P42679); details: CTK; 1000 nM; read-out: Percent Control
[8] = molecular target: panel of 468 diverse kinases (Homo sapiens, UniProt P42684); details: ABL2; 1000 nM; read-out: Percent Control
[9] = molecular target: panel of 468 diverse kinases (Homo sapiens, UniProt P49841); details: GSK3B; 1000 nM; read-out: Percent Control
[10] = molecular target: panel of 468 diverse kinases (Homo sapiens, UniProt P51955); details: NEK2; 1000 nM; read-out: Percent Control
[11] = molecular target: panel of 468 diverse kinases (Homo sapiens, UniProt P53350); details: PLK1; 1000 nM; read-out: Percent Control
Sequence of panel of 468 diverse kinases (Homo sapiens, UniProt P53350) (P53350 2-603 limits assumed): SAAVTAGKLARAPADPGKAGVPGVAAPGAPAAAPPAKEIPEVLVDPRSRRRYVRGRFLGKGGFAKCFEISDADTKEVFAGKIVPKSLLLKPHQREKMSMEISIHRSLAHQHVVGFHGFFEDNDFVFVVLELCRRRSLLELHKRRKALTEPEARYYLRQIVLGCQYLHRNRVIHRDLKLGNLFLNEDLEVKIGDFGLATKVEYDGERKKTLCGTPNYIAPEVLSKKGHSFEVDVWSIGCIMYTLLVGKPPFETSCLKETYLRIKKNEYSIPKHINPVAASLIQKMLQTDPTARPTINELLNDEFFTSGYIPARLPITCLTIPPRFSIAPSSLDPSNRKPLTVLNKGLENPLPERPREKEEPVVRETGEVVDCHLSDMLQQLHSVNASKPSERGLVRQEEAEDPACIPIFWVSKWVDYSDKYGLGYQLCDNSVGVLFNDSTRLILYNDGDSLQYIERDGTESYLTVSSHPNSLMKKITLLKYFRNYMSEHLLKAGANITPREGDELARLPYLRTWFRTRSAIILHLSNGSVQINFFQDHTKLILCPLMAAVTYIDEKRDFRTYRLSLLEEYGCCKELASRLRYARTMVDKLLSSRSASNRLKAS

[12] = molecular target: panel of 468 diverse kinases (Homo sapiens, UniProt P53671); details: LIMK2; 1000 nM; read-out: Percent Control
[13] = molecular target: panel of 468 diverse kinases (Homo sapiens, UniProt P57059); details: SIK; 1000 nM; read-out: Percent Control
[14] = molecular target: panel of 468 diverse kinases (Homo sapiens, UniProt P78362); details: SRPK2; 1000 nM; read-out: Percent Control
[15] = molecular target: panel of 468 diverse kinases (Homo sapiens, UniProt Q02763); details: TIE2; 1000 nM; read-out: Percent Control
Sequence of panel of 468 diverse kinases (Homo sapiens, UniProt Q02763) (Q02763 23-1124 limits assumed): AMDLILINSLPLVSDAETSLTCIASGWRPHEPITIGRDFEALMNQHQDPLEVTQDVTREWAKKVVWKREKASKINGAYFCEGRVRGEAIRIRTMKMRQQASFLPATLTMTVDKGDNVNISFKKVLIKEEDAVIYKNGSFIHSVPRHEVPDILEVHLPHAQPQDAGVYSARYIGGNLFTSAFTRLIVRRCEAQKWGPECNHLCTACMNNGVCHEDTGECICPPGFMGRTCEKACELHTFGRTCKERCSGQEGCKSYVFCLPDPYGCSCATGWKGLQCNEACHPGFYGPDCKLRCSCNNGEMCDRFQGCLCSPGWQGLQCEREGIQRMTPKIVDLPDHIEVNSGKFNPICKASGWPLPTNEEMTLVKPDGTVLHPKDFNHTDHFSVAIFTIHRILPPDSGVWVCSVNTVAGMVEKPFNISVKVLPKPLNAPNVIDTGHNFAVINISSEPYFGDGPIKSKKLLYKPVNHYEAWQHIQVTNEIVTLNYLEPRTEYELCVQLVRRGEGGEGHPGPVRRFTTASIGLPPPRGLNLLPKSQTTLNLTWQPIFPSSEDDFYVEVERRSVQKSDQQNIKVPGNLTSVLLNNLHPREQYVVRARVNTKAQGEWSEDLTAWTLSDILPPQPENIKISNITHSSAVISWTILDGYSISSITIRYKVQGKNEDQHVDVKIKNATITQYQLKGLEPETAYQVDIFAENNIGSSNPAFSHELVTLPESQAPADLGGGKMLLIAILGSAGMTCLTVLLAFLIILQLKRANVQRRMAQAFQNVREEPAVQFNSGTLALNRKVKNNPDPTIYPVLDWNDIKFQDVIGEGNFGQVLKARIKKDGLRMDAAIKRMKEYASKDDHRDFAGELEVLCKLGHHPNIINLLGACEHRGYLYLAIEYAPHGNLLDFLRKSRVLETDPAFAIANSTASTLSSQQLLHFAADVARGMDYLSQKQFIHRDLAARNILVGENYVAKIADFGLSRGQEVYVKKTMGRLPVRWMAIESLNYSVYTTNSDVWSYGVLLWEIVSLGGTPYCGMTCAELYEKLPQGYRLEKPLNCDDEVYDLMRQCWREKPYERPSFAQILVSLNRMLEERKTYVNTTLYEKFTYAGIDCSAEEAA

[16] = molecular target: panel of 468 diverse kinases (Homo sapiens, UniProt Q15303); details: ERBB4; 1000 nM; read-out: Percent Control
[17] = molecular target: panel of 468 diverse kinases (Homo sapiens, UniProt Q15835); details: GRK1; 1000 nM; read-out: Percent Control
[18] = molecular target: panel of 468 diverse kinases (Homo sapiens, UniProt Q6PHR2); details: ULK3; 1000 nM; read-out: Percent Control
[19] = molecular target: panel of 468 diverse kinases (Homo sapiens, UniProt Q8N4C8); details: MINK; 1000 nM; read-out: Percent Control
[20] = molecular target: panel of 468 diverse kinases (Homo sapiens, UniProt Q9BRS2); details: RIOK1; 1000 nM; read-out: Percent Control
[21] = molecular target: panel of 468 diverse kinases (Homo sapiens, UniProt Q9BVS4); details: RIOK2; 1000 nM; read-out: Percent Control
[22] = molecular target: panel of 468 diverse kinases (Homo sapiens, UniProt Q9H1R3); details: MYLK2; 1000 nM; read-out: Percent Control
[23] = molecular target: panel of 468 diverse kinases (Homo sapiens, UniProt Q9H3Y6); details: SRMS; 1000 nM; read-out: Percent Control
[24] = molecular target: panel of 468 diverse kinases (Homo sapiens, UniProt Q9HBH9); details: MKNK2; 1000 nM; read-out: Percent Control
[25] = molecular target: panel of 468 diverse kinases (Homo sapiens, UniProt Q9NY57); details: YANK2; 1000 nM; read-out: Percent Control
[26] = molecular target: panel of 468 diverse kinases (Homo sapiens, UniProt Q9UF33); details: EPHA6; 1000 nM; read-out: Percent Control
Sequence of panel of 468 diverse kinases (Homo sapiens, UniProt Q9UF33) (Q9UF33 23-1036 limits assumed): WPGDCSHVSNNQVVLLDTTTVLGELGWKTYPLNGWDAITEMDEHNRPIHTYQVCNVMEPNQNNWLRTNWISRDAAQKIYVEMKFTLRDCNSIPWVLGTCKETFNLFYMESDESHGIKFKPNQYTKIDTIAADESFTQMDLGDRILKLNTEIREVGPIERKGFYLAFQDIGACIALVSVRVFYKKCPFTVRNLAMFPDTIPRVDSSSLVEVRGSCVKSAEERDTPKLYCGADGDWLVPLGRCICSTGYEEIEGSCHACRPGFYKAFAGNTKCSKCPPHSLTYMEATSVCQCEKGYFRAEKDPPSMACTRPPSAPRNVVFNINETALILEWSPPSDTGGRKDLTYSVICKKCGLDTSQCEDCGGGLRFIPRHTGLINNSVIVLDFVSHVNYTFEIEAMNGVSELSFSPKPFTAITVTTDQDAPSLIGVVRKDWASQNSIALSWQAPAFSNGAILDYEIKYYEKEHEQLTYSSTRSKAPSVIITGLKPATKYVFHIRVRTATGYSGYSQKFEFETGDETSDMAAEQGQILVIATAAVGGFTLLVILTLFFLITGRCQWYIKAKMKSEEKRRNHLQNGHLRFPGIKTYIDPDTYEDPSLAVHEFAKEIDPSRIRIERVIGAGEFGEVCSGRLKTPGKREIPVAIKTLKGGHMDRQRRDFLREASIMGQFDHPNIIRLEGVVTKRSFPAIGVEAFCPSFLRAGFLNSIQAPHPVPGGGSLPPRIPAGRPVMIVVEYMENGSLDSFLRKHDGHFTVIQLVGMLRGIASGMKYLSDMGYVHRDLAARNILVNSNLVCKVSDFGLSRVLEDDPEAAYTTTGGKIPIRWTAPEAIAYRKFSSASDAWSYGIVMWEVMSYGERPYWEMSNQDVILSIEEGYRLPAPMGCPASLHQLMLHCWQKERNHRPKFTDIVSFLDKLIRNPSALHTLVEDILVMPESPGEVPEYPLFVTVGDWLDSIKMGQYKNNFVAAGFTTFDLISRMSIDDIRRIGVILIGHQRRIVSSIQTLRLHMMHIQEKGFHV

[27] = molecular target: panel of 468 diverse kinases (Homo sapiens, UniProt Q9UKE5); details: TNIK; 1000 nM; read-out: Percent Control
[28] = molecular target: panel of 468 diverse kinases (Homo sapiens, UniProt Q9UM73); details: ALK; 1000 nM; read-out: Percent Control
Sequence of panel of 468 diverse kinases (Homo sapiens, UniProt Q9UM73) (Q9UM73 19-1620 limits assumed): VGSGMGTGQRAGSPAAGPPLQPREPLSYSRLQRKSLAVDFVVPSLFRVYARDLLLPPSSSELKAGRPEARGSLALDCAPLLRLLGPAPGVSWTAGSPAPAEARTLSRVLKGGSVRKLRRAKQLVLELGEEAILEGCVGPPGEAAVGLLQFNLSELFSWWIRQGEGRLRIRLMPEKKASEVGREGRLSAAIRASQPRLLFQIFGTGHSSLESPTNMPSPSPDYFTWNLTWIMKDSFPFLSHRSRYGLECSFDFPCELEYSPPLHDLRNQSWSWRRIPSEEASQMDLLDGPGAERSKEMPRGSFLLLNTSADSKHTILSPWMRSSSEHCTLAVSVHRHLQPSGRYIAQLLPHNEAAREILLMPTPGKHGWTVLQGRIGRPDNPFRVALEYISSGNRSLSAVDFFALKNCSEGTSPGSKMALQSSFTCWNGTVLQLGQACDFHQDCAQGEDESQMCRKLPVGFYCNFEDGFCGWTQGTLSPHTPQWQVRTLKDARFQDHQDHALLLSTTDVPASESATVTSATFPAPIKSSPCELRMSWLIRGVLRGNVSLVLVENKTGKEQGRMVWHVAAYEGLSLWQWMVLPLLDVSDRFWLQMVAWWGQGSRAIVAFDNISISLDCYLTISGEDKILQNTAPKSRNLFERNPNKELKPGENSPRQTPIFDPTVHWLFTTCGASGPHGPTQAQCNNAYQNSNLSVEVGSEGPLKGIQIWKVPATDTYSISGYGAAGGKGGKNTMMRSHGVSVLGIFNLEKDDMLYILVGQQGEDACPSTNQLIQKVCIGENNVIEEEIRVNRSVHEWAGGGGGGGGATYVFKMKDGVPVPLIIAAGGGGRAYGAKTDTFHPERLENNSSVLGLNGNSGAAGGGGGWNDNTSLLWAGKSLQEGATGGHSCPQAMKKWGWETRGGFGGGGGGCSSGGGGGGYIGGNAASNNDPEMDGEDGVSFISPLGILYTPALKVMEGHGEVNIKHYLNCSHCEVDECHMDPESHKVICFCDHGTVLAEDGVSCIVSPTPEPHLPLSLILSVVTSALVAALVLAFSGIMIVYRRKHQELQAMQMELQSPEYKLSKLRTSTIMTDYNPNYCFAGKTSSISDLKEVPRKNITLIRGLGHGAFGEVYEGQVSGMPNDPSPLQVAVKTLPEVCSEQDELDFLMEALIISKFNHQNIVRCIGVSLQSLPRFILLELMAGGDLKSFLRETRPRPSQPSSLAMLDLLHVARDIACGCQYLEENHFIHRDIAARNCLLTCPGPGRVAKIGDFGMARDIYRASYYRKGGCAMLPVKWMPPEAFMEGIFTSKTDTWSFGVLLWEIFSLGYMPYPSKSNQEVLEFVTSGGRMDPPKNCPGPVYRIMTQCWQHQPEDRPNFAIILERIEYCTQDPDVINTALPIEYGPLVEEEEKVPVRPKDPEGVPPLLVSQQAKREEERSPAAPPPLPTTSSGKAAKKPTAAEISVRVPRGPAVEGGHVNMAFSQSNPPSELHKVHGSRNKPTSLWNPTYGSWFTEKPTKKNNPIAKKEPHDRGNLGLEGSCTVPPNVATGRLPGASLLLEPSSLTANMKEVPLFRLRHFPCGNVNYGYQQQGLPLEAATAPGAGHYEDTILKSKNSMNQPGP

[29] = molecular target: panel of 468 diverse kinases (Homo sapiens, UniProt Q9UQ88); details: CDC2L2; 1000 nM; read-out: Percent Control
[30] = molecular target: panel of 468 diverse kinases (Homo sapiens, UniProt Q9Y4K4); details: MAP4K5; 1000 nM; read-out: Percent Control
[31] = molecular target: panel of 468 diverse kinases (Homo sapiens, UniProt Q9Y6R4); details: MAP3K4; 1000 nM; read-out: Percent Control

COc1cc2nc(NC3CC3)nc(NC3CCN(C(C)C)CC3)c2cc1OC [Formula IV]
remaining activity at 1 µM [1]: 97%
remaining activity at 1 µM [2]: 100%
remaining activity at 1 µM [3]: 90%
remaining activity at 1 µM [4]: 81%
remaining activity at 1 µM [5]: 89%
remaining activity at 1 µM [6]: 83%
remaining activity at 1 µM [7]: 32%
remaining activity at 1 µM [8]: 98%
remaining activity at 1 µM [9]: 72%
remaining activity at 1 µM [10]: 100%
remaining activity at 1 µM [11]: 70%
remaining activity at 1 µM [12]: 96%
remaining activity at 1 µM [13]: 81%
remaining activity at 1 µM [14]: 80%
remaining activity at 1 µM [15]: 100%
remaining activity at 1 µM [16]: 96%
remaining activity at 1 µM [17]: 67%
remaining activity at 1 µM [18]: 71%
remaining activity at 1 µM [19]: 69%
remaining activity at 1 µM [20]: 100%
remaining activity at 1 µM [21]: 80%
remaining activity at 1 µM [22]: 96%
remaining activity at 1 µM [23]: 89%
remaining activity at 1 µM [24]: 82%
remaining activity at 1 µM [25]: 56%
remaining activity at 1 µM [26]: 100%
remaining activity at 1 µM [27]: 98%
remaining activity at 1 µM [28]: 61%
remaining activity at 1 µM [29]: 99%
remaining activity at 1 µM [30]: 100%
remaining activity at 1 µM [31]: 100%
